Measured values reported in patent publication US8487133B2, “Substituted bicyclo [4.1.0] heptane-7-carboxylic acid amides and derivatives thereof as food flavor substances” (Symrise AG, priority 2006, dated 2013).

How the values were obtained:
[1] = Sensorial tests of the taste of the compounds (own investigations); type: in vivo; settings: for salt-intensifying effect / cooling effect: sensorial tests; for intrinsic umami taste: sensorial tests of the compound
Description: From the taste aspect the use according to the invention of a compound of the Formula (I) which is one of the two enantiomeric compounds of the Formula (IVa),
In this connection the relative configuration of the stereogenic centers is of great importance.

trained panel = assay: Sensorial tests in American beef bouillon / meat broth by trained panel (mouthfeel, comparison with MSG); type: in vivo; settings: for umami taste compared to other compounds having an umami taste / MSG: American beef bouillon base, 5 ppm (IVc), 2 ppm (B1)+(B2), 0.5 ppm (P1)+(P2) vs 0.05 wt. % MSG (FIG. 1-3)
Description: This is also illustrated in the accompanying spider diagrams, in which an American beef bouillon as base is compared firstly to such a base containing an addition of 5 ppm of (1R,2S,5R,6S,7R)-2-isopropyl-5-methyl-bicyclo[4.1.0]heptane-7-carboxylic acid ethylamide (IVc) (FIG. 1) or 2 ppm of a mixture of (1S,2S,5R,6R,7S)-2-isopropyl-5-methyl-bicyclo[4.1.0]heptane-7-carboxylic acid cyclobutylamide (B1) and (1R,2S,5R,6S,7R)-2-isopropyl-5-methyl-bicyclo[4.1.0]heptane-7-carboxylic acid cyclobutylamide (B2) (FIG. 2) or 0.5 ppm of a mixture of (1S,2S,5R,6R,7S)-2-isopropyl-5-methyl-bicyclo[4.1.0]heptane-7-carboxylic acid cyclopentylamide (P1) and (1R,2S,5R,6S,7R)-2-isopropyl-5-methyl-bicyclo[4.1.0]heptane-7-carboxylic acid-cyclopentylamide (P2) (FIG. 3) respectively, and secondly with such a base containing an addition of 0.05 wt. % of MSG.
The mean values of the respective scores are shown.
The taste of a 0.5% American beef extract as base (continuous, pale line) was compared on the basis of an evaluation by a panel of trained testers with the taste firstly of such a base to which 5 ppm of (1R,2S,5R,6S,7R)-2-isopropyl-5-methyl-bicyclo[4.1.0]heptane-7-carboxylic acid ethylamide had been added (continuous, dark line), and secondly of such a base to which 0.05 wt. % of MSG had been added (dotted line).
The taste of a 0.5% American beef extract as base (continuous, pale line) was compared on the basis of an evaluation by a panel of trained testers to the taste firstly of such a base to which 2 ppm of a mixture of 1S,2S,5R,6R,7S)-2-isopropyl-5-methyl-bicyclo[4.1.0]heptane-7-carboxylic acid cyclobutylamide (B1) and (1R,2S,5R,6S,7R)-2-isopropyl-5-methyl-bicyclo[4.1.0]heptane-7-carboxylic acid cyclobutylamide (B2) had been added (continuous, dark line), and secondly of such a base to which 0.05 wt. % of MSG had been added (dotted line).
The taste of a 0.5 wt. % American beef extract as base (continuous, pale line) was compared on the basis of an evaluation by a panel of trained testers with the taste firstly of such a base to which 0.5 ppm of a mixture of (1S,2S,5R,6R,7S)-2-Isopropyl-5-methyl-bicyclo[4.1.0]heptane-7-carboxylic acid cyclopentylamide (P1) and (1R,2S,5R,6S,7R)-2-isopropyl-5-methyl-bicyclo[4.1.0]heptane-7-carboxylic acid cyclopentylamide (P2) had been added (continuous, dark line), and secondly of such a base to which 0.05 wt. % of MSG had been added (dotted line).

CCNC(=O)C1C2CCCC(C(C)C)C21 (stereo not drawn) [2-isopropyl-bicyclo[4.1.0]heptane-7-carboxylic acid ethylamide, reference compound]
salt-intensifying effect [1]: slight | intrinsic umami taste [1]: very slight, umami-like

CCNC(=O)[C@@H]1[C@@H]2[C@H]1[C@H](C(C)C)CC[C@H]2C (single isomer, unassigned) [Formula (IVc)]
intensification of saltiness, sweetness and umami taste of aroma compositions ([1]; in vivo): intensifies the saltiness, the sweetness and the umami taste | cooling effect [1]: no cooling effect | intrinsic umami taste [1]: very strongly pronounced | mouthfeel (trained panel; 5 ppm added to 0.5 wt. % American beef bouillon, compared with 0.05 wt. % MSG): increased by roughly the same extent as is normally achieved only by the addition of 0.05 wt. % of MSG | umami taste compared to other compounds having an umami taste / MSG (trained panel): clear umami taste very similar to sodium glutamate (MSG)

CC(C)[C@@H]1CC[C@@H](C)[C@H]2[C@H](C(=O)NC3CCC3)[C@H]21 [Formula (B1), (1S,2S,5R,6R,7S)-2-isopropyl-5-methyl-bicyclo[4.1.0]heptane-7-carboxylic acid cyclobutylamide]
intrinsic umami taste [1]: very strongly pronounced

CCNC(=O)[C@@H]1[C@@H]2[C@H]1[C@H](C)CC[C@H]2C(C)C [(1S,2S,5R,6R,7S)-2-isopropyl-5-methyl-bicyclo[4.1.0]heptane-7-carboxylic acid ethylamide]
cooling effect [1]: slight | intrinsic umami taste [1]: only moderately

CC(C)[C@@H]1CC[C@@H](C)[C@@H]2[C@@H](C(=O)NC3CCCCC3)[C@@H]21 [Formula (H2), (1R,2S,5R,6S,7R)-2-isopropyl-5-methyl-bicyclo[4.1.0]heptane-7-carboxylic acid-cyclohexylamide]
intrinsic umami taste [1]: very strongly pronounced

CCNC(=O)C1CC1 [cyclopropanecarboxylic acid ethylamide, Cyclopropanecarboxylic acid N-ethylamide, reference compound]
umami taste ([1]; 10 ppm in aqueous solutions): very weak umami taste | contribution to the mouthfeel (trained panel; meat broth/consommé compositions): does not make any statistically significant contribution

CCNC(=O)C1C2CCCCC21 (stereo not drawn) [Bicyclo[4.1.0]heptane-7-carboxylic acid N-ethylamide, reference compound]
taste ([1]; in vivo): no detectable taste

(1R,2S,5R,6S,7R)-2-isopropyl-5-methyl-bicyclo[4.1.0]heptane-7-carboxylic acid cyclohexylamide/(1S,2S,5R,6R,7S)-2-isopropyl-5-methyl-bicyclo[4.1.0]heptane-7-carboxylic acid cyclohexylamide [mixture of (H1) and (H2)]
intrinsic umami taste [1]: umami note was also detected, which however developed somewhat more slowly

CCNC(=O)C1C2C3CCC(C3)C12 (stereo not drawn) [Tricyclo[3.2.1.0^2,4]octane-3-carboxylic acid N-ethylamide]
salt-intensifying effect [1]: salt-intensifying effect | intrinsic umami taste [1]: distinct umami taste | mouthfeel (trained panel; 50 ppm in broths/consommés made from American beef extract): statistically significant increase

CCNC(=O)C1C2C(C)CCC(C(C)C)C12 (stereo not drawn) [2-Isopropyl-5-methyl-2-ispropyl-bicyclo[4.1.0]heptane-7-carboxylic acid ethylamide]
sensorial properties ([1]; in vivo): particularly strong

CCNC(=O)C1C2C1[C@H](C)CC[C@H]2C(C)C (single isomer, unassigned) [mixture of both diastereomers]
cooling effect [1]: can no longer be detected | intrinsic umami taste [1]: completely dominated by the umami impression of the (1R,2S,5R,6S,7R) isomer

CC(C)[C@@H]1CC[C@@H](C)[C@H]2[C@H](C(=O)NC3CCCCC3)[C@H]21 [Formula (H1), (1S,2S,5R,6R,7S)-2-isopropyl-5-methyl-bicyclo[4.1.0]heptane-7-carboxylic acid cyclohexylamide]
intrinsic umami taste [1]: very strongly pronounced

CCNC(=O)C1C2CC(C)CC(C)C21 (stereo not drawn) [2,4-dimethyl-bicyclo[4.1.0]heptane-7-carboxylic acid ethylamide]
salt-intensifying effect [1]: slight | intrinsic umami taste [1]: stronger, umami-like

(1R,2S,5R,6S,7R)-2-isopropyl-5-methyl-bicyclo[4.1.0]heptane-7-carboxylic acid cyclobutylamide/(1S,2S,5R,6R,7S)-2-isopropyl-5-methyl-bicyclo[4.1.0]heptane-7-carboxylic acid cyclobutylamide [mixture of (B1) and (B2)]
sweetish impression ([1]; in vivo): slightly sweetish impression | intrinsic umami taste [1]: very strong umami note | umami taste compared to other compounds having an umami taste / MSG (trained panel): clear umami taste very similar to sodium glutamate (MSG)

(1R,2S,5R,6S,7R)-2-isopropyl-5-methyl-bicyclo[4.1.0]heptane-7-carboxylic acid cyclopentylamide/(1S,2S,5R,6R,7S)-2-isopropyl-5-methyl-bicyclo[4.1.0]heptane-7-carboxylic acid cyclopentylamide [mixture of (P1) and (P2)]
umami taste ([1]; at very low concentrations): very much more intensive and clear | umami taste compared to other compounds having an umami taste / MSG (trained panel): clear umami taste very similar to sodium glutamate (MSG)

CC(C)[C@@H]1CC[C@@H](C)[C@@H]2[C@@H](C(=O)NC3CCC3)[C@@H]21 [Formula (B2), (1R,2S,5R,6S,7R)-2-isopropyl-5-methyl-bicyclo[4.1.0]heptane-7-carboxylic acid-cyclobutylamide]
intrinsic umami taste [1]: very strongly pronounced
